Measurements: article PMC6673703, “14-3-3 signal adaptor and scaffold proteins mediate GPCR trafficking” (Scientific Reports, 2019)

Target: T1, sphingosine-1-phosphate receptor 1 (S1PR1) (Homo sapiens, UniProt P21453)
T1 construct: full-length, C-terminal TEV fusion
Assay: LinkLight S1PR1/β-arrestin interaction assay in HEK293 cells
Format: cell-based

T1 sequence (P21453 whole entry, the tested form may be a part): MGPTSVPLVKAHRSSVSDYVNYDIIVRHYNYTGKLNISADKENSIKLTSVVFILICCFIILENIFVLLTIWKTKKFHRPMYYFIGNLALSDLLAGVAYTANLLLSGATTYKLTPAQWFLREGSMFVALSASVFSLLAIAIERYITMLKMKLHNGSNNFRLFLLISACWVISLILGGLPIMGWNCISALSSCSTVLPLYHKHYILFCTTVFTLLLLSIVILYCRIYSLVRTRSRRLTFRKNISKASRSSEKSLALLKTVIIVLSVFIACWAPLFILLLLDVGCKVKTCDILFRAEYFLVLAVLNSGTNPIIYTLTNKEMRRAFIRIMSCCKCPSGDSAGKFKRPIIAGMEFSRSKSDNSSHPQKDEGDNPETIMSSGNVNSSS
T1 sequence (P32121 whole entry partner, the tested form may be a part): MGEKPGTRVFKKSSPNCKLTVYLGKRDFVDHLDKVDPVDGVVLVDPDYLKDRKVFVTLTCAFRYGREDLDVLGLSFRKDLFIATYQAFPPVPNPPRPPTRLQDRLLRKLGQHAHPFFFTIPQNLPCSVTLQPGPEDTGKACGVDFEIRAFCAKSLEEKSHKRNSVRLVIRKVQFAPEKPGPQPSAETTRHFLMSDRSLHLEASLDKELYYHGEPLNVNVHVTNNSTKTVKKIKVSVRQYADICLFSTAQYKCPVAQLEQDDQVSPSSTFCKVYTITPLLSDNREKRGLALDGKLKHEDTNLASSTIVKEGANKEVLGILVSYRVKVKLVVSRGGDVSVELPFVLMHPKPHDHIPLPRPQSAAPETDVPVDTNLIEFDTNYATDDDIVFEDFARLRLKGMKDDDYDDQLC

CCCCCCCCCCCCC/C=C/[C@@H](O)[C@@H](N)COP(=O)(O)O [S1P]
EC50: 129 nM
